{"source": "ChEMBL document CHEMBL5465560", "about": "“Selectivity Literature for EUbOPEN Chemogenomic Library” (2024)", "key": {"[1]": {"target": "T1, Homeodomain-interacting protein kinase 4 (Homo sapiens) (UniProt Q8NE63)", "T1 sequence (whole entry)": "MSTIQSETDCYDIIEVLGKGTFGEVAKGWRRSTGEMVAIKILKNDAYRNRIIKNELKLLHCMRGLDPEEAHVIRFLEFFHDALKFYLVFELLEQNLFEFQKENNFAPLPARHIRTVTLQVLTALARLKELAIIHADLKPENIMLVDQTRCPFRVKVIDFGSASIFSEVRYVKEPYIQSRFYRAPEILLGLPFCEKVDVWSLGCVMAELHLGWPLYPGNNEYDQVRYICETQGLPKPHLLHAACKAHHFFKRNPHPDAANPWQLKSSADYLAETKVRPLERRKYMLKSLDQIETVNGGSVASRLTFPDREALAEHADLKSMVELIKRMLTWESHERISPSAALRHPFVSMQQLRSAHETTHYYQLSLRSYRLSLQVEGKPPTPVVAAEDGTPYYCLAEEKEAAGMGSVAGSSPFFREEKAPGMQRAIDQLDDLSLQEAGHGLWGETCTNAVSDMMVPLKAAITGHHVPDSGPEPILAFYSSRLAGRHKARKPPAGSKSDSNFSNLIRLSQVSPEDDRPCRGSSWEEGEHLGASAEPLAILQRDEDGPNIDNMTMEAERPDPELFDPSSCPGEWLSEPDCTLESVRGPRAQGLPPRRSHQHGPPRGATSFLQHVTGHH", "assay": "Selectivity interaction (KinomeScan (DiscoverX)) EUB0000607a HIPK4", "conditions": "at 10 µM"}, "[2]": {"target": "T2, Serine/threonine-protein kinase D3 (Homo sapiens) (UniProt O94806)", "T2 sequence (whole entry)": "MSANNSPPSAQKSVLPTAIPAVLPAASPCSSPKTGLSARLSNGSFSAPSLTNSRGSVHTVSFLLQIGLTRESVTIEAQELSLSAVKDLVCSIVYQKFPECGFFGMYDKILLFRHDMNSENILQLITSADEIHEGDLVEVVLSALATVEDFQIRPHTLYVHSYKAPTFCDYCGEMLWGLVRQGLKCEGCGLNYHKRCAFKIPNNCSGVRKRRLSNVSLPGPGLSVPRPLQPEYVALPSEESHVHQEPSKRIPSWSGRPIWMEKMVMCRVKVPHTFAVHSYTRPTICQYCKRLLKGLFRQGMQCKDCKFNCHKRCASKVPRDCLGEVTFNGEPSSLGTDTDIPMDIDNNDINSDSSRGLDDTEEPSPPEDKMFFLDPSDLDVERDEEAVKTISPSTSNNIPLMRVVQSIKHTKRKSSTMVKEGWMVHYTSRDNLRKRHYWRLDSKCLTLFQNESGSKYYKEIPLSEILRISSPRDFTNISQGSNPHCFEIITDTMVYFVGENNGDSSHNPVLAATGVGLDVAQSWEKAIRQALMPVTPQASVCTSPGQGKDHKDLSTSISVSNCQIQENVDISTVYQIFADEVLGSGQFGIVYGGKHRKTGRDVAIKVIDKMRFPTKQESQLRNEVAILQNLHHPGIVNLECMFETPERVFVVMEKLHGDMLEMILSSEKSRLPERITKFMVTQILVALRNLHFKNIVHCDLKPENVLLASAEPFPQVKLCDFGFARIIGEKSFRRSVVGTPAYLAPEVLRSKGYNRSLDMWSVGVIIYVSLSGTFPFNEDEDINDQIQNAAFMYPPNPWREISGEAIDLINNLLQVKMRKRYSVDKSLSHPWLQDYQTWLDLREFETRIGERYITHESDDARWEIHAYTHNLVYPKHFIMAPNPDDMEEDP", "assay": "Selectivity interaction (SelectScreen profiling (Invitrogen)) EUB0000607a PRKD3", "conditions": "at 2 µM"}, "[3]": {"target": "T3, Phosphorylase b kinase gamma catalytic chain, liver/testis isoform (Homo sapiens) (UniProt P15735)", "T3 sequence (whole entry)": "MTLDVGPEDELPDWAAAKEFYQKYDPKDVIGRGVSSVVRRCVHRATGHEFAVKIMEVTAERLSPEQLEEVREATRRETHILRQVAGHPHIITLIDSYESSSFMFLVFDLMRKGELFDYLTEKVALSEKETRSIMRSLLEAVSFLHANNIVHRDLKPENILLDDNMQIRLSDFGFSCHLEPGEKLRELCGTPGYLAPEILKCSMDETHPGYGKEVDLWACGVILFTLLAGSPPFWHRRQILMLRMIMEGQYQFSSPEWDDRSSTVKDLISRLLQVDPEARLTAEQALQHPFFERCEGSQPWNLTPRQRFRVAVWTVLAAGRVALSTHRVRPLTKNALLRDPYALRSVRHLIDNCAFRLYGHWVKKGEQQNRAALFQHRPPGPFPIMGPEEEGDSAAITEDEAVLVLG", "assay": "Selectivity interaction (KinomeScan (DiscoverX)) EUB0001049a PHKG2", "conditions": "at 1 µM"}, "[4]": {"target": "T4, Ephrin type-B receptor 6 (Homo sapiens) (UniProt O15197)", "T4 sequence (whole entry)": "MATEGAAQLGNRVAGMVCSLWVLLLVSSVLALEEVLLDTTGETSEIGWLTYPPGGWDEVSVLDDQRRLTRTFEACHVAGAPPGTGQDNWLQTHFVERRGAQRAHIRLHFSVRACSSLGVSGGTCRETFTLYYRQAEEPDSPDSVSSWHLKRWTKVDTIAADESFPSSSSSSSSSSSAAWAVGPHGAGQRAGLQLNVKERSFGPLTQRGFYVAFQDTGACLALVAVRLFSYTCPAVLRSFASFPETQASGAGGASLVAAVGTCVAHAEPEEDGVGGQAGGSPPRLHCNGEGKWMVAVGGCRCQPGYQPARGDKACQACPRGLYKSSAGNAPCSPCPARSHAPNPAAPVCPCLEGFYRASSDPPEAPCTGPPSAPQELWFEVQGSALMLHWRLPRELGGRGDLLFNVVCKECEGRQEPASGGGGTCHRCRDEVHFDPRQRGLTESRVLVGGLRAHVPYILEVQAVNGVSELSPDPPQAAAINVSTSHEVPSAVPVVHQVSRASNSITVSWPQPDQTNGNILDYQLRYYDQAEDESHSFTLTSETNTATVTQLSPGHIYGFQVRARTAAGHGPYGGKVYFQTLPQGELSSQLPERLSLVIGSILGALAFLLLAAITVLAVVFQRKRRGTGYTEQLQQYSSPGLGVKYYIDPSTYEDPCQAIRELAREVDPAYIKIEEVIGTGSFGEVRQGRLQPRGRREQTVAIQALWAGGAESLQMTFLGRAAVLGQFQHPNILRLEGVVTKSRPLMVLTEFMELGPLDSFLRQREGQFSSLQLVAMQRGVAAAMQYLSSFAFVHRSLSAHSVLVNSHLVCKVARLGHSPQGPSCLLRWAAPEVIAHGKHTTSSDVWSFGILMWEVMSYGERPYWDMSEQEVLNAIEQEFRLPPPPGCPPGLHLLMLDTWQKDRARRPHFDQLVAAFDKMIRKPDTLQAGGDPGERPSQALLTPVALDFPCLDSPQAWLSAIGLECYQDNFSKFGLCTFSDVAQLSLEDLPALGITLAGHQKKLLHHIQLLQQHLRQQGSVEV", "assay": "Selectivity interaction (KinomeScan (DiscoverX)) EUB0001619a EPHB6", "conditions": "at 1 µM"}}, "data": [{"molecule": "CNC(=O)Nc1ccc(-c2nc(N3CC4CCC(C3)O4)c3cnn(C4CCC5(CC4)OCCO5)c3n2)cc1", "values": [{"measurement": "% of control", "setting": "[1]", "value": 100, "unit": "%"}, {"measurement": "% of inhibition", "setting": "[2]", "value": 4, "unit": "%"}]}, {"molecule": "COc1cc(Nc2nc(C)cc(-c3cnn4nc(OC)ccc34)n2)cc(C(F)(F)F)c1", "values": [{"measurement": "% of control", "setting": "[3]", "value": 100, "unit": "%"}]}, {"molecule": "N#Cc1cccc(-c2c[nH]c3ncnc(N4CCOCC4)c23)c1", "values": [{"measurement": "% of control", "setting": "[4]", "value": 86, "unit": "%"}]}]}
